Experimental data from patent publication US12427212B2, “Nectin-4 binding miniproteins, conjugates and uses thereof” (Aktis Oncology, Inc., priority 2023, dated 2025).
Bridges are numbered along the chain shown (N, C = ends). [ ]: non-standard residue; d: D form. The star is where a group is joined. Biotin = O=C1N[C@H]2[C@H](CS[C@H]2CCCCC(=O)*)N1; Lys(Me3) = C[N+](C)(C)CCCC[C@H](N)C(=O)O; Arg(Me2s) = CN=C(NC)NCCC[C@H](N)C(=O)O; Cit = NC(=O)NCCC[C@H](N)C(=O)O; PEG4 = NCCOCCOCCOCCOCCC(=O)O

Legend:
[1] = tested on: un-transfected HEK293 cells; experiment: Background binding to un-transfected HEK293 cells (cell microarray suitability); type: cell-based, human; conditions: biotin-labeled molecules
Method: To evaluate potential off-target binding, six biotin-labeled molecules were tested in a cell microarray platform having 6,416 different human proteins spanning diverse functions and subcellular locations.

Nectin-4 = biological target: T1, Nectin-4 (Homo sapiens, UniProt Q96NY8); experiment: DELFIA competitive binding assay (Ki) against Eu-labeled C307 on HT-1376 cells
T1 sequence (Q96NY8 32-510): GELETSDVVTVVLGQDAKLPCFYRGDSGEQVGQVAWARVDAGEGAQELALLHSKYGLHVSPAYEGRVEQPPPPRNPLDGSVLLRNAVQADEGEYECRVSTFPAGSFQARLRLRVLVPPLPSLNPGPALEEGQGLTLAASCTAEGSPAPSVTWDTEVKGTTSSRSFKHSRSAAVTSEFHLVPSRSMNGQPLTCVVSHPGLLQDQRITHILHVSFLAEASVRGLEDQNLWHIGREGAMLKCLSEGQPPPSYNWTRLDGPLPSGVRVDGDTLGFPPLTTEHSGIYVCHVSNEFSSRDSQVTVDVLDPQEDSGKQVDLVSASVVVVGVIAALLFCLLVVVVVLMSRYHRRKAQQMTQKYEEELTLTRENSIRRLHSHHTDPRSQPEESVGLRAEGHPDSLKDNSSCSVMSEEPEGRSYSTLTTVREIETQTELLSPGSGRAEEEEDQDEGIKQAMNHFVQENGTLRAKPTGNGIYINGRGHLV
Method: A competition binding assay was utilized to determine the Ki for miniproteins bound to Nectin-4 expressed on the surface of cancer cells. […] Miniprotein incubations occurred for 90 min to reach binding equilibrium. […] After miniprotein incubations, the wells were washed to remove unbound ligand and treated according to manufacturer instructions for a DELFIA® (dissociation-enhanced lanthanide fluorescent immunoassay, Revvity Health Sciences). In brief, washed wells were incubated with 15 μL of 2 M HCl for 2 h at 37° C., after which 17 μL of 2 M NaOH and 30 μL of DELFIA® enhancement solution were added to each well and incubated for an additional 30 min. The remaining Eu reacted with the DELFIA® enhancer solution to generate fluorescence measured on the Envision instrument. Relative fluorescence units (RFUs) were measured as a function of test article concentration in order to calculate an IC50.
A whole cell binding assay was used to estimate the equilibrium binding affinity (KD) or binding inhibition constant (Ki) of miniprotein ligands to cells expressing a target of interest. Cells were dispensed into a 384-well plate and incubated at 37° C., in 5% CO2 overnight. The next day cells were gently washed once in assay buffer prior to addition of europium chelated ligand. […] For Ki determination, a single concentration (KD equivalent concentration) of europium-chelate miniprotein was added to each well followed immediately by the addition of unconjugated competing ligand over 12 different concentrations ranging from 100 times below and above expected Ki values as before. The plate was incubated for 1.5 h at room temperature to reach binding equilibrium. Cells were then washed three times at room temperature with 1×PBS followed by the addition of 2 M HCl and incubated for two h at 37° C. Following this step, 2 M NaOH and fluorescent inducer solution were added to each well and incubated for 30 minutes at room temperature according to the manufacturer's protocol (Perkin-ELMER DELFIA assay). Plates were read on an Envision plate reader and a curve-fitting model was applied to estimate KD and Ki values using GraphPad Prism software.
Engineered Nectin-4 miniproteins with further modified lysine residues (C298-C304; as described in Example 4B) were evaluated for their ability to bind to Nectin-4.

[2] = tested on: Opossum kidney proximal tubule cells; experiment: Proximal tubule epithelial cell uptake assay; type: cell-based; conditions: Table 10A; mean percent uptake in opossum kidney cells, 1 h at 37° C., relative to control miniprotein C306
Method: FIG. 8 is a bar graph of the percent uptake of exemplary miniproteins tested at 20 µM in a proximal tubule epithelial cell assay vs 20 μM control peptide set at 100%. […]
Opossum kidney proximal tubule cells were plated in the upper chamber of 24-well transwell plates containing 600 μL of growth media in the lower chamber and were incubated overnight at 37° C., in 5% CO2. The following day, the media was changed, and cells were incubated an additional 24 h with orbital shaking at 146 RPM. Next, cells were washed and treated in duplicates with biotinylated exemplary miniproteins pre-complexed with streptavidin-AF647 for 1 h at 37° C., and 5% C02 with continuous orbital shaking. Following incubation, cells were washed three times with 1×PBS and lysed with RIPA buffer containing protease and phosphatase inhibitor cocktail and a universal nuclease for 30 minutes. Uptake was measured on 100 μL of lysates using a fluorimeter. Mean % uptake values of control miniprotein C306 in the presence of exemplary miniproteins are provided in TABLE 10A and summarized in FIG. 8.
Uptake of engineered Nectin-4 miniproteins with further modified lysine residues (C298-C304, as described in Example 4B) was evaluated. Percent uptake of these exemplary Nectin-4-targeting miniproteins and C251 were determined against a control miniprotein, C306, using opossum kidney proximal tubule cells as described in Example 18A. Percent uptake of C298, which has an unmodified lysine (K) at amino acid position 26 (along the length of the miniprotein sequence. SEQ ID NO: 162), was 37% in the presence of […]. All other miniproteins having a modified lysine (modified with one or more small alkyl groups of monomethyl, dimethyl, trimethyl, or isopropyl group) had (i) kidney uptake similar to that of C251 and (ii) reduced uptake as compared to C298, which has an unmodified lysine at position 26.

Compound | Background binding to un-transfected HEK293 cells [1] | Ki (Nectin-4) [nM] | % Uptake of C306 (Control) [2] [%]
CC[C@H](C)[C@@H]1NC(=O)[C@H](Cc2ccc(O)cc2)NC(=O)[C@H](CC(=O)O)NC(=O)[C@@H]2CSSC[C@@H](C(=O)N[C@@H](CO)C(=O)O)NC(=O)CNC(=O)[C@H](CC(C)C)NC(=O)[C@H](CC(N)=O)NC(=O)[C@H](CC(=O)O)NC(=O)[C@H](CC(C)C)NC(=O)[C@H]([C@@H](C)CC)NC(=O)[C@H](CCC(=O)O)NC(=O)[C@H](CCC(=O)O)NC(=O)[C@H]([C@@H](C)CC)NC(=O)[C@H](CSSC[C@H](NC(=O)CCOCCOCCOCCOCCNC(=O)CCCC[C@@H]3SC[C@@H]4NC(=O)N[C@@H]43)C(=O)N[C@@H](CCC(=O)O)C(=O)N[C@@H](Cc3ccc(O)cc3)C(=O)N[C@@H](CC(=O)O)C(=O)N[C@@H](CCC(=O)O)C(=O)N[C@@H](CCC(N)=O)C(=O)N[C@@H](Cc3ccccc3)C(=O)N[C@@H](Cc3ccccc3)C(=O)N[C@@H]([C@@H](C)O)C(=O)N[C@@H](C)C(=O)N[C@@H](CC(C)C)C(=O)N[C@@H](CCCCN)C(=O)N[C@@H](CCCNC(=N)N)C(=O)N[C@@H](CC(C)C)C(=O)N[C@@H](CCCNC(=N)N)C(=O)NCC(=O)N[C@@H](CC(=O)O)C(=O)N[C@@H](CC(=O)O)C(=O)N[C@@H]([C@@H](C)CC)C(=O)N2)NC(=O)[C@H](CC(C)C)NC(=O)CNC(=O)[C@@H]2CCCN2C(=O)[C@H](CC(C)C)NC(=O)[C@H](Cc2ccc(O)cc2)NC(=O)[C@H](CCC(N)=O)NC(=O)[C@H](Cc2ccccc2)NC(=O)[C@H](CO)NC(=O)[C@H](C)NC(=O)[C@H](CCC(N)=O)NC1=O [Compound C197] | low-background binding | – | –
CC[C@H](C)[C@@H]1NC(=O)[C@H](Cc2ccc(O)cc2)NC(=O)[C@H](CCC(=O)O)NC(=O)[C@@H]2CSSC[C@@H](C(=O)N[C@@H](CO)C(=O)O)NC(=O)CNC(=O)[C@H](CC(C)C)NC(=O)[C@H](CC(N)=O)NC(=O)[C@H](CC(=O)O)NC(=O)[C@H](CC(C)C)NC(=O)[C@H]([C@@H](C)CC)NC(=O)[C@H](CCC(=O)O)NC(=O)[C@H](CCC(=O)O)NC(=O)[C@H]([C@@H](C)CC)NC(=O)[C@H](CSSC[C@H](NC(=O)CCOCCOCCOCCOCCNC(=O)CCCC[C@@H]3SC[C@@H]4NC(=O)N[C@@H]43)C(=O)N[C@@H](CC(=O)O)C(=O)N[C@@H](Cc3ccc(O)cc3)C(=O)N[C@@H](CC(=O)O)C(=O)N[C@@H](CCC(=O)O)C(=O)N[C@@H](CCC(N)=O)C(=O)N[C@@H](Cc3ccccc3)C(=O)N[C@@H](Cc3ccccc3)C(=O)N[C@@H]([C@@H](C)O)C(=O)N[C@@H](C)C(=O)N[C@@H](CC(C)C)C(=O)N[C@@H](CCCCN)C(=O)N[C@@H](CCCNC(=N)N)C(=O)N[C@@H](CC(C)C)C(=O)N[C@@H](CCCNC(=N)N)C(=O)NCC(=O)N[C@@H](C)C(=O)N[C@@H](CC(=O)O)C(=O)N[C@@H]([C@@H](C)CC)C(=O)N2)NC(=O)[C@H](CCC(=O)O)NC(=O)CNC(=O)[C@@H]2CCCN2C(=O)[C@H](CC(C)C)NC(=O)[C@H](Cc2ccc(O)cc2)NC(=O)[C@H](CCC(N)=O)NC(=O)[C@H](Cc2ccccc2)NC(=O)[C@H](CO)NC(=O)[C@H](C)NC(=O)[C@H](CCC(N)=O)NC1=O [Compound C208] | low-background binding | – | –
CC[C@H](C)[C@@H]1NC(=O)[C@H](Cc2ccc(O)cc2)NC(=O)[C@H](CCC(=O)O)NC(=O)[C@@H]2CSSC[C@@H](C(=O)N[C@@H](CO)C(=O)O)NC(=O)CNC(=O)[C@H](CC(C)C)NC(=O)[C@H](CC(N)=O)NC(=O)[C@H](CC(=O)O)NC(=O)[C@H](CC(C)C)NC(=O)[C@H]([C@@H](C)CC)NC(=O)[C@H](CCC(=O)O)NC(=O)[C@H](CCC(=O)O)NC(=O)[C@H]([C@@H](C)CC)NC(=O)[C@H](CSSC[C@H](NC(=O)CCOCCOCCOCCOCCNC(=O)CCCC[C@@H]3SC[C@@H]4NC(=O)N[C@@H]43)C(=O)N[C@@H](CC(=O)O)C(=O)N[C@@H](Cc3ccc(O)cc3)C(=O)N[C@@H](CC(=O)O)C(=O)N[C@@H](CCC(=O)O)C(=O)N[C@@H](CCC(N)=O)C(=O)N[C@@H](Cc3ccccc3)C(=O)N[C@@H](Cc3ccccc3)C(=O)N[C@@H]([C@@H](C)O)C(=O)N[C@@H](C)C(=O)N[C@@H](CC(C)C)C(=O)N[C@@H](C)C(=O)N[C@@H](CCCNC(=N)N)C(=O)N[C@@H](CC(C)C)C(=O)N[C@@H](CCCNC(=N)N)C(=O)NCC(=O)N[C@@H](C)C(=O)N[C@@H](CC(=O)O)C(=O)N[C@@H]([C@@H](C)CC)C(=O)N2)NC(=O)[C@H](CCC(=O)O)NC(=O)CNC(=O)[C@@H]2CCCN2C(=O)[C@H](CC(C)C)NC(=O)[C@H](Cc2ccc(O)cc2)NC(=O)[C@H](CCC(N)=O)NC(=O)[C@H](Cc2ccccc2)NC(=O)[C@H](CO)NC(=O)[C@H](C)NC(=O)[C@H](CCC(N)=O)NC1=O [Compound C247] | low-background binding | – | –
{Biotin-PEG4}-CDYDEQFFTALA[Cit]LRGGDICEYIQA[Lys(Me3)]FQYLPGLCIEEILDNLGCS-OH (disulfide 1-34, 20-44) [Compound C259] | low-background binding | – | –
{Biotin-PEG4}-CDYDEQFFTALKRLRGGDICEYIQA[Lys(Me3)]FQYLPGECIEEILDNLGCS-OH (disulfide 1-34, 20-44) [Compound C255] | – | 0.66 | 14.1
{Biotin-PEG4}-CEYDEEFFTALARLRGADICQYIQA[Lys(Me3)]FQYLPALCIEEILDNLGCS-OH (disulfide 1-34, 20-44) [Compound C252] | – | 0.76 | 1.24
{Biotin-PEG4}-CEYDEQFFTALARLRGADICEYIQARFQYLPGLCIEEILDNLGCS-OH (disulfide 1-34, 20-44) [Compound C280] | – | 0.54 | 1.56
{Biotin-PEG4}-CEYDEQFFTALARLRGGDICEYIQA[Arg(Me2s)]FQYLPGLCIEEILDNLGCS-OH (disulfide 1-34, 20-44) [Compound C267] | – | 0.76 | 0.800
